Experimental data as given in PubChem BioAssay (NCI).
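Step 1: Grow cells in 96-well plates. Step 2: Expose to compound for 48 hours at 5 concentrations. Step 3: Interpolate endpoints linearly; if unreached, use highest concentration. Here, GI50 denotes the concentration required for 50% inhibition of growth. Definition used: TGI = concentration required for complete inhibition of growth.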

Tests used:
Test in all cases: DTP human tumour cell line panel, 48 h
[1] = test system: HCC-2998 colon
[2] = test system: HS 578T breast
[3] = test system: KM12 colon
[4] = test system: LOX IMVI melanoma
[5] = test system: MDA-N
[6] = test system: OVCAR-4 ovarian
[7] = test system: OVCAR-8 ovarian
[8] = test system: SK-OV-3 ovarian
[9] = test system: SW-620 colon
[10] = test system: DLD-1 colon
[11] = test system: SNB-78 CNS
[12] = test system: HOP-18 NSCLC

| Compound | TGI [1] | TGI [2] | TGI [3] | TGI [4] | TGI [5] | TGI [6] | TGI [7] | TGI [8] | TGI [9] | TGI [10] | TGI [11] | GI50 [1] | GI50 [3] | GI50 [6] | GI50 [8] | GI50 [9] | GI50 [2] | GI50 [4] | GI50 [7] | TGI [12] |
| --- | --- | --- | --- | --- | --- | --- | --- | --- | --- | --- | --- | --- | --- | --- | --- | --- | --- | --- | --- | --- |
| O=C1OC2(c3ccc(O)cc3Oc3cc(O)ccc32)c2c1c(-c1ccccc1)c(-c1ccccc1)c(-c1ccccc1)c2-c1ccccc1 | 30 µM | 47.7 µM | 32.3 µM | 32.4 µM | 44.9 µM | 80.7 µM | 45.2 µM | > 100 µM | 52 µM |  |  |  |  |  |  |  |  |  |  |  |
| O=C1c2ccccc2C(=O)c2c(O)c(O)cc(O)c21 | 85.6 µM |  | > 100 µM | > 100 µM |  | > 100 µM | > 100 µM | 82.7 µM | > 100 µM | > 100 µM | > 100 µM |  |  |  |  |  |  |  |  |  |
| COc1cc2c3c(n(C4CCNCC4)c(=O)c2cc1OC)-c1cc2c(cc1C3=O)OCO2 | 2.71 µM |  | 2.53 µM |  |  | 2.95 µM |  | 1.75 µM | 1.95 µM |  |  | 1.34 µM | 1.11 µM | 1.42 µM | 0.402 µM | 0.225 µM |  |  |  |  |
| CCCCCCCCCCCCCCCCOCCCOP(=O)(O)C1CCCN(O)C1=O (stereo not drawn) | 14.6 µM | 66.7 µM | 11.3 µM | 11.4 µM |  | 19.2 µM | 27.8 µM | 16.7 µM | 22.3 µM |  |  | 1.11 µM | 0.572 µM | 2.43 µM | 3.62 µM | 1.47 µM | 14.1 µM | 2.86 µM | 3.29 µM |  |
| NC(=O)c1cc(C2OC(CO)C(O)C2O)nn1-c1ccc([N+](=O)[O-])cc1 (stereo not drawn) | > 100 µM |  | > 100 µM | > 100 µM |  | > 100 µM | > 100 µM | > 100 µM | > 100 µM | > 100 µM | > 100 µM |  |  |  |  |  |  |  |  | > 100 µM |
| COc1ccc(/C=C/[N+](=O)[O-])cc1 | 2.73 µM | 36.6 µM | 12 µM |  |  | 38.2 µM | 5.9 µM |  | > 100 µM |  |  |  |  |  |  |  |  |  |  |  |
| COc1cc2c3c(c4cc(OC)c(OC)cc4c2cc1OC)[C@H](O)[C@@H]1CCCN1C3 |  |  | 1.52 µM | 2.75 µM |  | 0.702 µM |  | 1.69 µM | > 100 µM |  |  |  |  |  |  |  |  |  |  |  |
| N#CC1=C(N)Nc2nc3ccccc3n2C1c1ccccc1 (stereo not drawn) |  | > 100 µM | > 100 µM | > 100 µM |  |  | > 100 µM | > 100 µM | > 100 µM |  |  |  |  |  |  |  |  |  |  |  |
| S=C1NN=C2C(=C3CCCC4C5CCCCC5N2C34)N1 (stereo not drawn) |  | > 100 µM | > 100 µM | > 100 µM |  | > 100 µM | > 100 µM | > 100 µM | > 100 µM |  |  |  |  |  |  |  |  |  |  |  |
| COC1/C=C\OC2(C)Oc3c(C)c(O)c4c(O)c(c(CN(C)C)c(O)c4c3C2=O)NC(=O)/C(C)=C\C=C/C(C)C(O)C(C)C(O)C(C)C(OC(C)=O)C1C (stereo not drawn) | 55.8 µM | > 100 µM | 99.6 µM | 35 µM | > 100 µM | > 100 µM | > 100 µM | > 100 µM | 75.6 µM |  |  |  |  |  |  |  |  |  |  |  |
| COc1ccc2c(c1)/C(=C\c1cccc(/C=C3/C(=O)Nc4ccc(OC)cc43)n1)C(=O)N2 | 3.58 µM | > 46.9 µM | 4.64 µM | 1.24 µM |  | 3.28 µM | > 25.4 µM | 17.3 µM | 7.92 µM |  |  |  |  |  |  |  |  |  |  |  |
| COC(=O)c1nc2c3c(cccc3c1C(=O)OC)Nc1ccccc1-2 | > 100 µM | > 100 µM | > 100 µM | > 100 µM | > 100 µM | > 100 µM |  | > 100 µM | > 100 µM |  |  |  |  |  |  |  |  |  |  |  |
| C[C@H](CCC1=NCCN1)[C@H]1CC[C@H]2[C@@H]3CC[C@@H]4C[C@H](O)CC[C@]4(C)[C@H]3CC[C@]12C | 24.6 µM | 48.2 µM | > 47.4 µM | 4.76 µM | 29.5 µM | 29.6 µM | 37.2 µM | 45.3 µM | > 48.9 µM |  |  |  |  |  |  |  |  |  |  |  |
| O=C(O)Cc1[nH]cnc1C(=O)O | > 100 µM | > 100 µM | > 100 µM | > 100 µM | > 100 µM | > 100 µM | > 100 µM | > 100 µM | > 100 µM |  |  |  |  |  |  |  |  |  |  |  |
| O=C(O)CNCc1c2ccccc2[n+]([O-])c2ccccc12 | > 100 µM |  | > 100 µM | > 100 µM |  | > 100 µM | > 100 µM | > 100 µM | > 100 µM | > 100 µM | > 100 µM |  |  |  |  |  |  |  |  | > 100 µM |
| CSc1sc(=S)sc1SC | > 100 µM |  | > 100 µM | > 100 µM |  | > 100 µM | > 100 µM | > 100 µM | > 100 µM | > 100 µM | > 100 µM |  |  |  |  |  |  |  |  | > 100 µM |
| O=C(O)C(Br)Cc1ccc2c(c1)OCO2 (stereo not drawn) | > 100 µM |  | > 100 µM |  |  | > 100 µM |  | > 100 µM | > 100 µM | > 100 µM | > 100 µM |  |  |  |  |  |  |  |  |  |
| C#C[C@@]1(O)[C@@H](CO)O[C@@H](n2cc(F)c3c(N)ncnc32)[C@@H]1O | 2.82 µM | > 100 µM | 24.9 µM | 1.11 µM |  | 8.67 µM | 3.69 µM | 2.09 µM | 2.9 µM |  |  | 0.6 µM | 0.502 µM | 1.01 µM | 0.285 µM | 0.159 µM | 3.97 µM | 0.279 µM | 0.256 µM |  |
| CCOn1cc(C2=C(c3c[nH]c4ccccc34)C(=O)NC2=O)c2ccccc21 | < 0.01 µM |  | 2 µM | 25.9 µM |  | > 72.4 µM | 20.3 µM | 0.735 µM | 22.7 µM |  |  | < 0.01 µM | < 0.0161 µM | 14.6 µM | 0.062 µM | < 0.01 µM |  |  | 0.0935 µM |  |
| C/C(=C\COP(=O)(O)OP(=O)(O)O)CC/C=C(\C)CNc1ccc([N+](=O)[O-])cc1 |  | > 100 µM | > 100 µM | > 100 µM |  | > 100 µM | > 100 µM | > 100 µM | > 100 µM |  |  |  |  |  |  |  |  |  |  |  |
| CSc1ccc(-c2cc(-c3nc4ccccc4[nH]3)nc3[nH]c(-c4nc5ccccc5[nH]4)cc(=O)c23)cc1 | 42.7 µM | > 100 µM | > 100 µM | > 100 µM |  | > 100 µM | > 100 µM | > 100 µM |  |  |  |  |  |  |  |  |  |  |  |  |
| Nc1nncs1 | > 5000 µM | > 5000 µM | > 5000 µM | > 5000 µM | > 5000 µM | > 5000 µM | > 5000 µM | 928 µM | > 5000 µM | > 5000 µM | > 4420 µM |  |  |  |  |  |  |  |  | > 5000 µM |
